# Measurements published in US9249086B2, “Carboxylic acid ALA esters” (Photocure ASA, priority 2012, dated 2016).
# Where a name gives a salt, the structure may show the parent alone. Read-outs that look alike come from different tables or passages of the source. Marks after values point to notes of the source that are not given here.
# Tests used:
# WiDr cells [1] = experiment: In vitro PpIX formation in cancer cells; type: cell-based
# Method: These untreated cells served as a control.
# After treatment with the compounds of the invention and reference compounds as described above, the cells were washed twice with PBS and scraped off the substrate with a Costar cell scraper into a solution of 1M HClO4 in 50% methanol. Cell debris was removed by centrifugation. PpIX was quantitatively extracted from the cells with this procedure. The PpIX content in each sample was determined fluorometrically using a Perkin Elmer LS50B spectrofluorimeter. PpIX was excited at 407 nm, and the emitted fluorescence was measured at 606 nm using a long pass cut-off filter (530 nm) on the emission side. A standard of known PpIX concentration was added to the samples at concentrations increasing the total fluorescence by 50-100%. The PpIX concentration in each sample was calculated relative to the protein content in control cells as measured by a bicinchoninic acid protein assay.
# WiDr cells [2] = settings: MTS assay; for Dark toxicity (cell toxicity in the absence of light): 0.001-1 mM, 4 hours incubation in the dark
# Method: Stock solutions of the compounds above were prepared by dissolving them in DMSO to a concentration of 100 mM. Concentrations used in the experiments were obtained by diluting the stock solutions with PBS or cell culture medium.
# WiDr cells derived from a primary adenocarcinoma of the rectosigmoid colon were subcultured in RPMI 1640 medium (Gibco) containing 10% fetal calf serum, 100 U/ml penicillin, 100 μg/ml streptomycin and 1% glutamine. Cells were split 1:100 twice a week, and maintained at 37° C. and 5% CO2 in a humid environment. For carrying out the experiments, 5×10^5 WiDr cells in 2 ml of the medium described above were added to each well of 6-well plastic tissue-culture plates (Nunc) and left for 48 hr at 37° C. and 5% CO2 in a humid environment for proper attachment to the substrate. The cells were then washed twice with RPMI 1640-medium without serum, followed by the addition to the wells of the appropriate dilutions of the compounds and references above in 2 ml of fresh culture medium to final concentrations of 0.001, 0.003, 0.01, 0.03, 0.1, 0.3 and 1 mM in duplicates. To two wells, only 2 ml of fresh culture medium was added. These untreated cells served as a control. The cells were incubated at 37° C. for four hours in the dark.
# Dark toxicity, i.e. cell toxicity in the absence of light, was measured by MTS assay immediately after the above-described 4 hours of incubation with the compounds and references at various concentrations.
# [3] = tested on: Rat bladder cells (AY-27); experiment: Cytotoxicity in rat bladder cells (MTT test); type: cell-based; settings: AY-27 cells; for Cytotoxicity: 2 hours, MTT test; for Levels of cytotoxicity compared to HAL: compound at 1 mM
# Method: All experiments were performed in 4-5 replicates under subdued light. For concentrations of compounds 1 mM, the cytotoxicity was assessed with MTT test. Exponentially growing cells were incubated with freshly prepared solution or medium as described above for 2 hours in 96-well plates. After the incubation, the solutions or the medium was discarded and the cells were washed twice with PBS. Then 50 μl of MTT (2.5 mg·ml^−1) was added to 150 μl of RPMI serum-free medium per well and incubated for 3 hours. Absorbance was measured by dissolving formazan crystals with 50 μl of DMSO. The absorbance was normalized to that of control cells.
# [4] = tested on: UV-damaged mouse skin versus healthy mouse skin; experiment: In vivo skin fluorescence in healthy nude mice and nude mice with UV-damaged skin; settings: nude mice
# Method: An experiment was carried out to assess the potential for compound 6 to show selective accumulation in UV-damaged skin. For the assessment, skin fluorescence after application of the compound was measured in vivo in healthy mouse skin and in UV-damaged mouse skin. A nude mice model with UV-damaged skin (actinic damage) was established as described by K. Togsverd-Bo et al., Exp. Dermatol. 2012, 21, 260-264.
# Equimolar amounts of compound 2 (1-(isopropyl carboxy)ethyl 5-amino-4-oxopentanoate hydrochloride prepared according to Example 2) and compound 5 (3-carboxypropyl 5 amino-4-oxopentanoate hydrochloride prepared according to Example 5) were formulated as a cream in Unguentum Merck: compound 2: 16%, 160 mg/g and compound 5: 14%, 140 mg/g, respectively.
# One group of healthy nude mice (10 mice, control group) and one group of nude mice with UV-damaged skin (10 mice) were included in the experiment. About 125 μl of cream formulation was applied onto the back of each mouse. Prior to cream application, the dorsal skin of each mouse was tape-stripped five times to enhance penetration of the compound: adhesive film (Scotch tape, 3M) was pressed onto the skin of the application area, the tape strip was removed with one quick movement and a new tape strip was used. The mice were kept in the dark for 3 hours prior to skin fluorescence measurement to avoid photobleaching. Skin fluorescence was assessed as described in Example 17 and the mean amount of skin fluorescence for each group of mice was calculated.
# The ratio of skin fluorescence [a.u] in UV-damaged mouse skin to skin fluorescence [a.u.] in healthy mouse skin was determined.
# [5] = tested on: Rat bladder cells (AY-27); experiment: PpIX measurements in rat bladder cells; type: cell-based; settings: AY-27 cells, 2 hours incubation
# Method: Rat bladder cells (AY-27) were grown in the culture medium (RPMI 1640 supplemented with 9% fetal calf serum 1% L-glutamin (200 mM) and 1% penicillin (10 000 UI), streptomycin (10 000 μg·mL^−1). Exponentially growing cells (AY-27) were incubated for 2 hours with freshly prepared solutions of 0.8 mM HAL (which is a tenth of the concentration which is used for bladder cancer […]). Control cells received serum-free medium without any test or reference compounds. After the incubation, the solutions or the medium was discarded and the cells were rinsed 2 times with ice-cooled PBS. PpIX was extracted from cells using an ice-cold lysis extraction mixture, consisting of ethanol/DMSO/acetic acid (80/20/1, v/v/v). The cell lysate was centrifuged (400 g, 10 min, 2° C.), the pellet was grinded and the suspension was sonicated for 15 min before being centrifuged. The fluorescence signal of PpIX was measured with a Perkin-Elmer LS 55 spectrometer (Perkin-Elmer, Beaconsfield, UK) and expressed as a function of the protein content. The fluorescence intensity at 635 nm in each sample was reported on a calibration curve established with PpIX (Sigma-Aldrich, France) diluted in extraction mixture as described above. The PpIX concentration was expressed relative to the protein content. Briefly, a lysis buffer mixture (1 mM EDTA, 1% Triton X-100 and 10 mM Tris-HCl; pH 7.4) was added to frozen cell dishes together with 500 mM PMSF (anti-protease) solution in DMSO. Lysates were kept on ice for 30 minutes and centrifuged at 4° C. for 20 minutes at 15 000 g. The protein content was then measured against a BSA calibration curve by a Biorad DC protein assay kit (Bio-Rad, France) based on a method developed by Lowry.
# [6] = WiDr cells, 0.001-1 mM, 4 hours incubation, * mean of two, ** mean of 3 experiments
Compound,Max. PpIX content (WiDr cells [1]; [6]),"Compound concentration for max PpIX formation (WiDr cells [1]; WiDr cells, 4 hours incubation)",Dark toxicity (cell toxicity in the absence of light) (WiDr cells [2]),Compound concentration for max PpIX formation (WiDr cells [1]) [mM],Max. PpIX content (WiDr cells [1]),further results
"Cl.NCC(=O)CCC(=O)O [ALA, 5-ALA hydrochloride, reference compound]",80* ng/mg protein,≧1 mM,no cell toxicity was observed,–,–,–
"NCC(=O)CCC(=O)OCCCC(=O)O [Compound 5, 3-carboxypropyl 5-amino-4-oxopentanoate hydrochloride]",30 ng/mg protein,1 mM,no cell toxicity was observed,–,–,"Cytotoxicity ([3]; 1 mM): 17 % of control; Cytotoxicity ([3]; 5 mM): 30 % of control; Cytotoxicity ([3]; 15 mM): 37 % of control; Levels of cytotoxicity compared to HAL [3]: comparable and acceptable; Ratio of skin fluorescence in UV-damaged mouse skin to skin fluorescence in healthy mouse skin ([4]; equimolar creams (16% / 14%), about 125 μl, tape-stripped skin, 3 hours in the dark, 10 mice per group): 2.72; Selectivity for UV-damaged skin ([4]; equimolar creams, 3 hours): pronounced selectivity for UV-damaged skin; PpIX Mean ± SD ([5]; 0.3 mM): 221 ± 32 pmoles/mg protein; PpIX Mean ± SD ([5]; 0.5 mM): 224 ± 35 pmoles/mg protein; PpIX Mean ± SD ([5]; 1 mM): 261 ± 52 pmoles/mg protein; PpIX Mean ± SD ([5]; 5 mM): 250 ± 83 pmoles/mg protein; PpIX Mean ± SD ([5]; 15 mM): 216 ± 11 pmoles/mg protein"
"NCC(=O)CCC(=O)OCCCCC(=O)O [Compound 8, 4-carboxybutyl 5-amino-4-oxopentanoate hydrochloride]",–,–,–,–,–,Cytotoxicity ([3]; 1 mM): 18 % of control; Cytotoxicity ([3]; 5 mM): 26 % of control; Cytotoxicity ([3]; 15 mM): 38 % of control; Levels of cytotoxicity compared to HAL [3]: comparable and acceptable; PpIX Mean ± SD ([5]; 0.3 mM): 243 ± 28 pmoles/mg protein; PpIX Mean ± SD ([5]; 0.5 mM): 219 ± 51 pmoles/mg protein; PpIX Mean ± SD ([5]; 1 mM): 258 ± 62 pmoles/mg protein; PpIX Mean ± SD ([5]; 5 mM): 234 ± 78 pmoles/mg protein; PpIX Mean ± SD ([5]; 15 mM): 213 ± 64 pmoles/mg protein
"NCC(=O)CCC(=O)OCCCCCC(=O)O [Compound 9, 5-carboxypentyl 5-amino-4-oxopentanoate hydrochloride]",–,–,no cell toxicity was observed,1,40 ng/mg protein,–
"NCC(=O)CCC(=O)OCCCCCCCC(=O)O [Compound 10, 7-carboxyheptyl 5-amino-4-oxopentanoate hydrochloride]",–,–,no cell toxicity was observed,1,55* ng/mg protein,–
"NCC(=O)CCC(=O)OCCCCCCCCCC(=O)O [Compound 12, 9-carboxynonyl 5-amino-4-oxopentanoate hydrochloride]",90* ng/mg protein,0.05 mM,no cell toxicity was observed,–,–,–
"NCC(=O)CCC(=O)OCCCCCCCCCCCC(=O)O [Compound 14, 11-carboxyundecyl 5-amino-4-oxopentanoate hydrochloride]",–,–,no cell toxicity was observed,0.1,65* ng/mg protein,–
"Cl.NCC(=O)CCC(=O)OCCCCCCCCCCCCCCCC(=O)O [Compound 15, 15-carboxypentadecyl 5-amino-4-oxopentanoate hydrochloride]",25 ng/mg protein,–,–,0.1,–,Concentrations at which compound was toxic (dark toxicity) (WiDr cells [2]; 4 hours in the dark): above 0.1 mM
"CCCCCCOC(=O)CCC(=O)CN.Cl [HAL, 5-ALA hexyl ester hydrochloride, reference compound]",94** ng/mg protein,0.1 mM,weak cell toxicity,–,–,"Cytotoxicity ([3]; 0.8 mM): 15 % of control; Minimum cell survival rate (WiDr cells [2]; range of 0.3 to 1 mM, 4 hours in the dark): 85%"
